The record followed here is patent US8258128B2, “Organic compounds” (Novartis AG, priority 2006, dated 2012).

The subject of data set [1] is rat carrageenan edema model. Description: Carrageenan edema in the rat (paw swelling). The data set is classed as in vivo. The conditions noted are these: for % inhibition of paw swelling: 3 mg/kg p.o. How it is done: Carrageenan edema in the rat: The effects of COMPOUND A are investigated in the carrageenan edema model. In this model an acute paw swelling is induced by the sub-plantar injection of carrageenan. The paw swelling has a duration of approximately 8 hours and is completely resolved at 24 hours. The model is used to assess anti-inflammatory activities of new therapeutics and is also sensitive to drugs such as COX-inhibitors like Diclofenac, which is used as a positive control compound in the model.
Method: Male OFA rats (5 animals/group) are treated orally with COMPOUND A (1, 3 and 9 mg/kg), Diclofenac (3 mg/kg) or vehicle (placebo formulation). One hour later (0 hours) the rats receive a 100 μl intra-plantar injection of a 1% w/v carrageenan solution in 0.9% saline in the hind paw and the diameter of the paw is measured by means of a micro-caliper. The paw diameter measurements are repeated 3 and 5 hours after injection of the carrageenan. Percentage inhibition of paw swelling at 3 and 5 hours is calculated by reference to vehicle treated animals (0% inhibition).
Edema is induced by a sub-plantar injection of carrageenan in the paw of the rat. Paw diameters are measured at the time of carrageenan injection (0 hours) and at 3 and 5 hours. Compounds are administered 1 hour before the carrageenan injection. COMPOUND A was dosed at 1, 3 and 9 mg/kg p.o. and Diclofenac at 3 mg/kg p.o.
On the technique in general: The carrageenan paw model is a standard test of acute inflammation.

In data set [2] the test system is collagen-induced arthritis in the rats. As to the kind of experiment: Collagen-induced arthritis in the rats, hind paw swelling. The data set is classed as in vivo, rat. The source says:
Animal models of RA need to reflect at least some of the features found in human RA (Billingham et al., 1979). Collagen-induced arthritis (CIA) has been proposed to meet these requirements (Durie et al., 1994). Especially the similarity in the joint pathophysiology makes this animal model most attractive for the evaluation of anti-rheumatic drugs (Takeshita et al., 1997). Synovial hyperplasia, which is an integral part of the disease, parallels the migration of leukocytes into the joint space; erosion and destruction of the cartilage surface can also be found (Holmdahl et al., 1985). The rat CIA, originally described by Trentham et al. (1977), was established and extensive studies with CsA were done, including three-dimensional magnetic resonance imaging (MRI) and histology (Beckmann et al., 1995; 1998). Differences in the susceptibility of several rat strains for the development of the disease have been reported (Cremer et al., 1995; Kamada et al., 1997; Knoerzer et al., 1997).
(§1) Method: For this study, COMPOUND A and COX-inhibitor Diclofenac are dissolved in a solvent containing 5% of glucose (5 ml/kg). Compounds are given orally once a day. Female rats of the WAGxBUF/F1 crossbred strain (weight 130 g) are used. The animals are divided into several groups, one placebo group (N=8), and four treatment groups (each N=7-8). Treatment starts on peak of disease (day 0) and continues for 11 days. Swelling is assessed at regular time intervals by measuring the external thickness of the hind paws in the region of the metatarsals using a micro-caliper. Tissue samples for histological evaluation are obtained at the end of the in vivo experiment, 5 h after the last oral dose of COMPOUND A or placebo on day 11.
Results shown are means±SEM of groups of each 4-8 animals of paw diameters in mm on day-12 (before the immunization with Type II collagen in incomplete Freund's adjuvant), day 0 (start of treatment) and day 11 (end of treatment).
The data shown represent the ability of the treatment (COMPOUND A at 4 different increasing doses) to reduce the volume of the hind paw measured at day 2, day 7 and day 11.

The test system is the same in data set [3]. Description: Collagen-induced arthritis in the rats, histological evaluation of hind paws. In kind it is in vivo, rat. The note with it: 1 mg/kg/day p.o., day 11. How it is done: as §1
Hind paws from control arthritic rats (vehicle-treated), taken post-mortem at the end of day 11 of the treatment, obtained relatively high histological scorings compared to histological scores of animals treated with COMPOUND A (0.3, 1, 3 and 9 mg/kg) or Diclofenac (1 mg/kg).

For data set [4], the system named is established Adjuvant-induced arthritis in rats. Description: Established adjuvant-induced arthritis in rats (therapeutic dosing schedule). In kind it is in vivo, rat. The conditions noted are these: 1 mg/kg/day p.o., 7 day treatment (Table 7). From the text:
Adjuvant arthritis can be treated using two different dosing schedules; either starting at the time of immunization with adjuvant (prophylactic dosing) or from day 15 when the arthritic response is already established (therapeutic dosing). It is more difficult to inhibit adjuvant arthritis with the therapeutic dosing schedule as compared to the prophylactic schedule. Both versions of adjuvant arthritis are, however, extremely sensitive to the effects of both non-selective COX inhibitors and COX 2 selective inhibitors where 70-90% inhibition of swelling can be achieved at appropriate doses. These models may be predictive for some of the processes thought to be relevant in rheumatoid arthritis.
Method: Female Wistar rats weighing 150-170 g (housed in standard conditions, 5 animals per cage, with food and water ad libitum) are injected i.d. at the base of the tail with 0.1 ml of mineral oil containing 0.6 mg of lyophilized heat-killed Mycobacterium tuberculosis. The rats are treated orally with COMPOUND A or placebo formulation from day 15 to day 22 (therapeutic dosing schedule) or with COMPOUND A from day 0 to day 14 after immunization (prophylactic dosing schedule). At the end of the experiment, the swelling of the tarsal joints is measured by means of a micro-caliper. For the comparison study to Diclofenac both compounds are given from day 15 to day 29 with readouts at day 22 and 29. Percentage inhibition of paw swelling is calculated by reference to placebo treated arthritic animals (0% inhibition) and placebo treated normal animals (100% inhibition). Five animals are used per group. Data are analyzed using Kruskal-Wallis non-parametric ANOVA followed by Dunn's Multiple Comparison test.

Structures can show the parent of a compound that is named as a salt.

As to `O=C(O)Cc1ccccc1Nc1c(Cl)cccc1Cl` [Diclofenac, sodium salt of 2-[(2,6-dichlorophenyl)amino]benzeneacetic acid, reference compound], the “% inhibition of paw swelling” value in data set [1] (3 hrs after carrageenan) is 91%. Further, in data set [1] (5 hrs after carrageenan), the “% inhibition of paw swelling” value came out at 87%. In addition, in data set [1] (3 mg/kg, at both times (3 and 5 hours)), the “inhibition in the carrageenan edema model” value was 87-91%. Further, the “hind paw diameter, mean ± SEM” value in data set [2] (1 mg/kg group, Day 0 (start of treatment)) was determined as 5.300 ± 0.265 mm. In addition, in data set [2] (1 mg/kg group, Day −12 (before immunization)), the “hind paw diameter, mean ± SEM” value worked out at 3.038 ± 0.024 mm. The “median inhibition of swelling, analysis of the AUC during day 0 to 11” value in data set [2] (1 mg/kg per day p.o.) was 57±9.9%. For the same compound, the “hind paw diameter, mean ± SEM” value in data set [2] (1 mg/kg per day p.o., Day 11 (end of treatment)) is 3.750 ± 0.029 mm. In data set [3], the “Bone apposition, effect on histological score” value was −38%; the “Cartilage damage, effect on histological score” value is on record as −32%; the “Infiltration of cells, effect on histological score” value was −22%; the “Loss of PG, effect on histological score” value was −24%. Moreover, in data set [4], the “Swelling (mm) ± S.D.” value is reported as 4.27 ± 0.31 mm.
In general, melting point refers to the temperature of the solid-liquid transition. `COC1=Nc2cc(Cl)ccc2/C(=C/C(=O)O)c2sccc21` [Compound 1.001, [7-Chloro-10-methoxy-3-thia-9-aza-benzo[f]azulen-(4Z)-ylidene]-acetic acid] registered a melting point of 186 to 188 °C.
